From ChEMBL document CHEMBL3046731, “Synthesis and antifungal activity of 1-substitutedphenyl-3-(5-halobenzimidazol-2-yl) acylurea” (J Pestic Sci, 2010)
≈ marks a conversion by molar mass, not a printed value.

Key:
Sclerotinia sclerotiorum = assay: Antifungal activity against Sclerotinia sclerotiorum assessed as inhibition of mycelium growth on potato dextrose agar at 25 +/- 1 degC for 96 hr; type: functional, organism-based
Botrytis cinerea = assay: Antifungal activity against Botryotinia fuckeliana assessed as inhibition of mycelium growth on potato dextrose agar at 25 +/- 1 degC for 96 hr; type: functional, organism-based

| Compound | EC50 (Sclerotinia sclerotiorum) | EC50 (Botrytis cinerea) |
| --- | --- | --- |
| O=C(NC(=O)c1nc2cc(Cl)ccc2[nH]1)Nc1ccc(F)cc1 | 6.23 µg/mL (≈ 18.7 µM) | 8.76 µg/mL (≈ 26.3 µM) |
| O=C(NC(=O)c1nc2cc(F)ccc2[nH]1)Nc1ccc(F)cc1 | 10.9 µg/mL (≈ 34.6 µM) | 10.9 µg/mL (≈ 34.6 µM) |
| O=C(NC(=O)c1nc2cc(F)ccc2[nH]1)Nc1ccc(Cl)c(Cl)c1 | 9.03 µg/mL (≈ 24.6 µM) | 11.5 µg/mL (≈ 31.5 µM) |
| O=C(NC(=O)c1nc2cc(Cl)ccc2[nH]1)Nc1ccc(Cl)cc1 | 6.05 µg/mL (≈ 17.3 µM) | 18.9 µg/mL (≈ 54 µM) |
| O=C(NC(=O)c1nc2cc(F)ccc2[nH]1)Nc1ccc(Cl)cc1 | 14.6 µg/mL (≈ 43.9 µM) | 4.65 µg/mL (≈ 14 µM) |
| O=C(NC(=O)c1nc2cc(F)ccc2[nH]1)Nc1ccc([N+](=O)[O-])cc1 | 8.71 µg/mL (≈ 25.4 µM) | 10.4 µg/mL (≈ 30.2 µM) |
| O=C(NC(=O)c1nc2cc(F)ccc2[nH]1)Nc1ccc(Br)cc1 | 8.66 µg/mL (≈ 23 µM) | 13.6 µg/mL (≈ 36.1 µM) |
| O=C(NC(=O)c1nc2cc(Cl)ccc2[nH]1)Nc1ccc(Cl)c(Cl)c1 | 5.5 µg/mL (≈ 14.3 µM) | 12.6 µg/mL (≈ 33 µM) |
| COC(=O)NC(=S)Nc1ccccc1NC(=S)NC(=O)OC [THIOPHANATE METHYL] | 10.5 µg/mL (≈ 30.5 µM) | 1.03 µg/mL (≈ 3.01 µM) |
| O=C(NC(=O)c1nc2cc(Cl)ccc2[nH]1)Nc1ccc([N+](=O)[O-])cc1 | 9.14 µg/mL (≈ 25.4 µM) | 30.7 µg/mL (≈ 85.4 µM) |
| O=C(NC(=O)c1nc2cc(Cl)ccc2[nH]1)Nc1ccccc1 | 11.7 µg/mL (≈ 37 µM) | 22.4 µg/mL (≈ 71.2 µM) |
| O=C(NC(=O)c1nc2cc(F)ccc2[nH]1)Nc1ccccc1 | 6.55 µg/mL (≈ 22 µM) | 19.9 µg/mL (≈ 66.9 µM) |
| O=C(NC(=O)c1nc2cc(Cl)ccc2[nH]1)Nc1ccc(Br)cc1 | 9.28 µg/mL (≈ 23.6 µM) | 3.94 µg/mL (≈ 10 µM) |
